Results published in patent US9109048B2, “Inhibition of tumor growth” (priority 1998, dated 2015).
In brackets after ≈: the same amount, converted by molar mass. Ends that are not written are not given here. Peptide text beside a SMILES is read from it. * marks the point of attachment. Acm = CC(=O)NC*

What was measured:
Type in all cases: cell-based
[1] = test system: human red blood cells; experiment: Hemolytic assay; set-up: % Hemolysis: dose or concentration left out as unconfirmed
Procedure: The hemolytic activities of the peptides were determined using fresh human red blood cells. 8 ml blood was taken from a healthy person. 4 ml blood was transferred to a polycarbonate tube containing heparin to a final concentration of 10 U/ml, and the remaining 4 ml blood was transferred to a glass tube containing EDTA with final concentration of 15% EDTA. The erythrocytes were isolated from heparin-treated blood by centrifugation in 1500 rpm for 10 min and washed three times with phosphate-buffered saline (PBS) to remove plasma and buffy coat. The cell pellet was resuspended in PBS to make the final volume of 4 ml. The peptide was diluted to a concentration of 2 mg/ml and 0.1 mg/ml. The peptide was further diluted to the concentrations as stated in Table 1. For each tube PBS was added first, then RBCs and peptide solutions. The hematocrit in the blood treated with EDTA was determined after 30 min with Sysmex K-1000, and the resuspended RBCs were diluted into 10% hematocrit. RBCs in PBS (1%) with and without peptides (Table 18) were incubated in a shaker at 37° for 1 hour and then centrifuged at 4000 rpm for 5 min. The supernatant were carefully transferred to new polycarbonate tubes and the absorbance of the supernatant was measured at 540 nm. Baseline hemolysis was hemoglobin released in the presence of PBS, and 100% hemolysis was hemoglobin released in the presence of 0.1% Triton X-100.

[2] = test system: Staphylococcus aureus ATCC 25923; experiment: MIC (minimum inhibitory concentration) test, microdilution
Procedure: (§1) The bacterial strains used were: Escherichia coli ATCC 25922 and Staphylococcus aureus ATCC 25923. All strains were stored at −70° C. The bacteria were grown in 2% Bacto Peptone water (Difco 1807-17-4). All tests were performed with bacteria in mid-logarithmic growth phase. Determination of the minimum inhibitory concentration (MIC) of the peptides for bacterial strains were performed in 1% Bacto Peptone water. A standard microdilution technique with an inoculum of 2×10^6 CFU/ml was used. All assays were performed in triplets. Since the peptides are positively charged and therefore could adhere to the plastic wells, we controlled the actual concentration of the peptides in the solution by HPLC. There was no difference between the concentration of the peptides before or after adding the solution to the plastic wells.

[3] = test system: Escherichia coli ATCC 25922; experiment: as above
Procedure: as §1

Molecule: CSCC[C@@H](NC(=O)[C@@H](CCCNC(=N)N)NC(=O)[C@@H](Cc1c[nH]c2ccccc12)NC(=O)[C@@H](CCC(N)=O)NC(=O)[C@@H](Cc1c[nH]c2ccccc12)NC(=O)[C@@H](CCCNC(=N)N)NC(=O)[C@@H](CCCNC(=N)N)NC(=O)[C@@H](CSCNC(C)=O)NC(=O)[C@@H](CCCCN)NC(=O)[C@H](N)Cc1ccccc1)C(=O)N[C@H](CCCCN)C(=O)N[C@H](CCCCN)C(=O)N[C@H](CC(C)C)C(=O)NCC(=O)N[C@H](C)C(=O)O [Enantio LFB 17-31]
- % Hemolysis [1]: 3.05%

Molecule: CSCC[C@H](NC(=O)[C@H](CCCNC(=N)N)NC(=O)[C@H](Cc1c[nH]c2ccccc12)NC(=O)[C@H](CCC(N)=O)NC(=O)[C@H](Cc1c[nH]c2ccccc12)NC(=O)[C@H](CCCNC(=N)N)NC(=O)[C@H](CCCNC(=N)N)NC(=O)[C@H](CSCNC(C)=O)NC(=O)[C@@H](N)CCCCN)C(=O)N[C@@H](CCCCN)C(=O)N[C@@H](CCCCN)C(=O)N[C@@H](CC(C)C)C(=O)NCC(=O)N[C@@H](C)C(=O)O [LFB 18-31] (H-KC(Acm)RRWQWRMKKLGA-OH; N-terminus and C-terminus assumed)
- MIC S. aureus ([2]; ATCC 25923): 200 µg/mL (≈ 104 µM)
- Minimum inhibitory concentration (MIC) S. aureus ATCC 25923 ([2]; Table 1, value in parentheses): 108 µM
- MIC E. coli ([3]; ATCC 25922): 80 µg/mL (≈ 41.7 µM)
- Minimum inhibitory concentration (MIC) E. coli ATCC 25922 ([3]; Table 1, value in parentheses): 43 µM

Molecule: CSCC[C@H](NC(=O)[C@H](CCCNC(=N)N)NC(=O)[C@H](Cc1c[nH]c2ccccc12)NC(=O)[C@H](CCC(N)=O)NC(=O)[C@H](Cc1c[nH]c2ccccc12)NC(=O)[C@H](CCCNC(=N)N)NC(=O)[C@H](CCCNC(=N)N)NC(=O)[C@@H](N)CSCNC(C)=O)C(=O)N[C@@H](CCCCN)C(=O)N[C@@H](CCCCN)C(=O)N[C@@H](CC(C)C)C(=O)NCC(=O)N[C@@H](C)C(=O)O [LFB 19-31] (H-C(Acm)RRWQWRMKKLGA-OH; N-terminus and C-terminus assumed)
- Minimum inhibitory concentration (MIC) S. aureus ATCC 25923 ([2]; Table 1, value in parentheses): > 150 µM
- Minimum inhibitory concentration (MIC) E. coli ATCC 25922 ([3]; Table 1, value in parentheses): 120 µM

Molecule: CSCC[C@H](NC(=O)[C@H](CCCNC(=N)N)NC(=O)[C@H](Cc1c[nH]c2ccccc12)NC(=O)[C@H](CCC(N)=O)NC(=O)[C@H](Cc1c[nH]c2ccccc12)NC(=O)[C@H](CCCNC(=N)N)NC(=O)[C@H](Cc1ccccc1)NC(=O)[C@H](CSCNC(C)=O)NC(=O)[C@H](CCCCN)NC(=O)[C@@H](N)CCCCN)C(=O)N[C@@H](CCCCN)C(=O)N[C@@H](CCCCN)C(=O)N[C@@H](CC(C)C)C(=O)NCC(=O)N[C@@H](C)C(=O)O [LFB F4K1] (H-KKC(Acm)FRWQWRMKKLGA-OH; N-terminus assumed)
- MIC S. aureus ([2]; ATCC 25923): 200 µg/mL (≈ 98.2 µM)
- Minimum inhibitory concentration (MIC) S. aureus ATCC 25923 ([2]; Table 1, value in parentheses): 100 µM
- MIC E. coli ([3]; ATCC 25922): 20 µg/mL (≈ 9.82 µM)
- Minimum inhibitory concentration (MIC) E. coli ATCC 25922 ([3]; Table 1, value in parentheses): 10 µM

Molecule: CSCC[C@H](NC(=O)[C@H](CCCNC(=N)N)NC(=O)[C@H](Cc1c[nH]c2ccccc12)NC(=O)[C@H](CCC(N)=O)NC(=O)[C@H](Cc1c[nH]c2ccccc12)NC(=O)[C@H](CCCNC(=N)N)NC(=O)[C@H](Cc1ccccc1)NC(=O)[C@H](CSCNC(C)=O)NC(=O)[C@H](CCCCN)NC(=O)[C@@H](N)Cc1ccccc1)C(=O)N[C@@H](CCCCN)C(=O)N[C@@H](CCCCN)C(=O)N[C@@H](CC(C)C)C(=O)NCC(=O)N[C@@H](C)C(=O)O [LFB F4] (H-FKC(Acm)FRWQWRMKKLGA-OH; N-terminus and C-terminus assumed)
- MIC S. aureus ([2]; ATCC 25923): 200 µg/mL (≈ 97.3 µM)
- Minimum inhibitory concentration (MIC) S. aureus ATCC 25923 ([2]; Table 1, value in parentheses): 100 µM
- MIC E. coli ([3]; ATCC 25922): 20 µg/mL (≈ 9.73 µM)
- Minimum inhibitory concentration (MIC) E. coli ATCC 25922 ([3]; Table 1, value in parentheses): 10 µM

Molecule: CSCC[C@H](NC(=O)[C@H](CCCNC(=N)N)NC(=O)[C@H](Cc1c[nH]c2ccccc12)NC(=O)[C@H](CCC(N)=O)NC(=O)[C@H](Cc1c[nH]c2ccccc12)NC(=O)[C@H](CCCNC(=N)N)NC(=O)[C@H](CCCNC(=N)N)NC(=O)[C@H](CSCNC(C)=O)NC(=O)[C@H](CCCCN)NC(=O)[C@@H](N)CCCCN)C(=O)N[C@@H](CCCCN)C(=O)N[C@@H](CCCCN)C(=O)N[C@@H](CC(C)C)C(=O)NCC(=O)N[C@@H](C)C(=O)O [LFB K1] (H-KKC(Acm)RRWQWRMKKLGA-OH; N-terminus assumed)
- MIC S. aureus ([2]; ATCC 25923): 100 µg/mL (≈ 48.9 µM)
- Minimum inhibitory concentration (MIC) S. aureus ATCC 25923 ([2]; Table 1, value in parentheses): 50 µM
- MIC E. coli ([3]; ATCC 25922): 60 µg/mL (≈ 29.3 µM)
- Minimum inhibitory concentration (MIC) E. coli ATCC 25922 ([3]; Table 1, value in parentheses): 30 µM

Molecule: CC[C@H](C)[C@H](NC(=O)[C@H](CO)NC(=O)[C@@H]1CCCN1C(=O)[C@H](C)NC(=O)CNC(=O)[C@H](CC(C)C)NC(=O)[C@H](CCCCN)NC(=O)[C@H](CCCNC(=N)N)NC(=O)[C@H](CCSC)NC(=O)[C@H](CCCNC(=N)N)NC(=O)[C@H](CCCNC(=N)N)NC(=O)[C@H](CCC(N)=O)NC(=O)[C@H](Cc1c[nH]c2ccccc12)NC(=O)[C@H](CCC(N)=O)NC(=O)[C@H](Cc1ccc(O)cc1)NC(=O)[C@H](CSCNC(C)=O)NC(=O)[C@H](CCCCN)NC(=O)[C@@H](N)CO)C(=O)N[C@H](C(=O)N[C@@H](CSCNC(C)=O)C(=O)N[C@H](C(=O)N[C@@H](CCCNC(=N)N)C(=O)N[C@@H](CCCNC(=N)N)C(=O)N[C@H](C(=O)N[C@@H](CO)C(=O)O)[C@@H](C)O)C(C)C)[C@@H](C)O [LFC (17-41)] (H-SKC(Acm)YQWQRRMRKLGAPSITC(Acm)VRRTS-OH)
- Minimum inhibitory concentration (MIC) S. aureus ATCC 25923 ([2]; ATCC 25923): 1000 µg/mL
- Minimum inhibitory concentration (MIC) E. coli ATCC 25922 ([3]; ATCC 25922): 750 µg/mL

Molecule: CSCC[C@H](NC(=O)[C@H](CCCCN)NC(=O)[C@H](CCCCN)NC(=O)[C@H](CC(C)C)NC(=O)CNC(=O)[C@H](C)N)C(=O)N[C@@H](CCCNC(=N)N)C(=O)N[C@@H](Cc1c[nH]c2ccccc12)C(=O)N[C@@H](CCC(N)=O)C(=O)N[C@@H](Cc1c[nH]c2ccccc12)C(=O)N[C@@H](CCCNC(=N)N)C(=O)N[C@@H](CCCNC(=N)N)C(=O)N[C@@H](CSCNC(C)=O)C(=O)N[C@@H](CCCCN)C(=O)N[C@@H](Cc1ccccc1)C(=O)O [Retro LFB 17-31]
- % Hemolysis [1]: 2.01%

Molecule: CSCC[C@@H](NC(=O)[C@@H](CCCCN)NC(=O)[C@@H](CCCCN)NC(=O)[C@@H](CC(C)C)NC(=O)CNC(=O)[C@@H](C)N)C(=O)N[C@H](CCCNC(=N)N)C(=O)N[C@H](Cc1c[nH]c2ccccc12)C(=O)N[C@H](CCC(N)=O)C(=O)N[C@H](Cc1c[nH]c2ccccc12)C(=O)N[C@H](CCCNC(=N)N)C(=O)N[C@H](CCCNC(=N)N)C(=O)N[C@H](CSCNC(C)=O)C(=O)N[C@H](CCCCN)C(=O)N[C@H](Cc1ccccc1)C(=O)O [Retro-Enantio LFB 17-31]
- % Hemolysis [1]: 3.31%

Molecule: FKARRWAWRMKKLGA-OH [LFB A3, 7]
- EC 50 (toxicity, hemolysis) ([1]; red cells of human): >1000 µg/mL

Molecule: GIGKFLKKARKFGRAWVRILKKG [Tosmag W16]
- MIC S. aureus ([2]; ATCC 25923): 5 µg/mL
- MIC E. coli ([3]; ATCC 25922): 10 µg/mL
